The source of these data is PubChem BioAssay (NCI).

Where “and” joins values, the source holds several entries; their conditions need not be identical. Identical values can stand only once.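 Each compound was tested at five concentrations against cells in 96-well plates for 48 hours. GI50 = concentration required for 50% inhibition of growth. TGI: concentration producing complete growth inhibition.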 A value given as a limit tells only on which side of the number the result lay.

Among the test systems are SF-539 CNS; HOP-92 NSCLC; SK-MEL-28 melanoma; SK-MEL-2 melanoma; UACC-62 melanoma; A498 renal; HCT-15 colon; UO-31 renal; HCT-116 colon; NCI-H226 lung.
What all share (assay): inhibition of tumour cell growth, NCI panel, 48 h

Regarding `COc1ccc(/C(C#N)=C/c2nc3c(N4CCOCC4)nc(Cl)nc3n2C)cc1OC`, the GI50 is below 0.01 µM with SF-539 CNS; 0.246 µM in the assay on HOP-92 NSCLC; 1.1 µM with SK-MEL-28 melanoma; below 0.0228 µM in the assay with SK-MEL-2 melanoma; below 0.01 µM in the assay on UACC-62 melanoma; below 0.01 µM in the assay with A498 renal. The GI50 with HCT-15 colon, in the assay on UO-31 renal and in the assay with HCT-116 colon was below 0.01 µM each time. Besides, the TGI in the assay with SF-539 CNS was below 0.01 µM; in the assay on HOP-92 NSCLC it was 2.94 µM; in the assay with SK-MEL-28 melanoma it was 2.43 µM; with SK-MEL-2 melanoma it was 1.27 µM; in the assay on UACC-62 melanoma it was 1.68 µM; in the assay with A498 renal, below 0.01 µM. For the same compound, the values for the TGI in the assay on HCT-15 colon, in the assay with UO-31 renal and in the assay with HCT-116 colon were 1.62 µM, 1.65 µM and 1.47 µM, respectively.

As to `CCSc1sc(-c2ccc(C)cc2)nc1[P+](c1ccccc1)(c1ccccc1)c1ccccc1`, the GI50 in the assay with SF-539 CNS was 0.394 µM; with HOP-92 NSCLC, 0.174 µM; with SK-MEL-28 melanoma it was 0.532 µM; in the assay with SK-MEL-2 melanoma, 0.273 µM; with UACC-62 melanoma, 0.292 µM; in the assay on A498 renal it was 0.161 µM. Further, the results for the GI50 with HCT-15 colon, in the assay with UO-31 renal and in the assay on HCT-116 colon were 0.315 µM, 0.254 µM and 0.252 µM, respectively. Further, the TGI in the assay on SF-539 CNS was 1.53 µM; in the assay with HOP-92 NSCLC, 0.593 µM; with SK-MEL-28 melanoma, 1.82 µM; with SK-MEL-2 melanoma, 0.805 µM; in the assay on UACC-62 melanoma, 1.24 µM; in the assay on A498 renal, 0.597 µM. For the same compound, the TGI in the assay on HCT-15 colon was found to be 1.18 µM; in the assay on UO-31 renal, 0.866 µM; with HCT-116 colon, 1.17 µM.

As for `Nc1nc(Cl)cc2c1ncn2C1OC(CO)C(O)C1O` (stereo unspecified), the GI50 in the assay on SF-539 CNS, with HOP-92 NSCLC, with SK-MEL-28 melanoma, with SK-MEL-2 melanoma, in the assay on UACC-62 melanoma and in the assay with A498 renal was above 100 µM throughout. Further, the GI50 in the assay with HCT-15 colon and in the assay with UO-31 renal was above 100 µM in each case. Besides, the TGI with SF-539 CNS, in the assay on HOP-92 NSCLC, in the assay on SK-MEL-28 melanoma, in the assay with SK-MEL-2 melanoma, in the assay on UACC-62 melanoma and in the assay on A498 renal was above 100 µM in each case. The TGI in the assay with HCT-15 colon and with UO-31 renal was above 100 µM in each case.

Regarding `COC(=O)C1=C(O)C(C(=O)OC)[C@@]2(O)[C@@H](C(=O)OC)C(c3ccccc3C(F)(F)F)C[C@@H]1[C@@H]2C(=O)OC` (stereo partly specified), the GI50 is 2.14 µM with SF-539 CNS; 15.8 µM in the assay on HOP-92 NSCLC; 2.13 µM with SK-MEL-28 melanoma; 19.7 µM in the assay with SK-MEL-2 melanoma; 4.09 µM in the assay on UACC-62 melanoma; 3.05 µM in the assay on A498 renal. The values for the GI50 in the assay with HCT-15 colon, in the assay with UO-31 renal and in the assay with HCT-116 colon were 1.4 µM, 13 µM and 6.34 µM, respectively. In addition, the TGI in the assay on SF-539 CNS came to 5.71 µM; with HOP-92 NSCLC, 37.9 µM; in the assay on SK-MEL-28 melanoma it was 14.5 µM; in the assay with SK-MEL-2 melanoma, 36.4 µM; in the assay on UACC-62 melanoma, 15 µM; in the assay on A498 renal, 7.62 µM. Also, the TGI with HCT-15 colon was found to be 3.11 µM; in the assay with UO-31 renal, 26.5 µM; with HCT-116 colon it was 18.8 µM.

Consider `COc1ccc2c(c1)C(CCN)C(=O)N2` (stereo unspecified), for which the TGI in the assay on SF-539 CNS, with HOP-92 NSCLC, in the assay on SK-MEL-28 melanoma, with SK-MEL-2 melanoma, with UACC-62 melanoma and in the assay on A498 renal was above 100 µM in each case. Besides, the TGI in the assay on HCT-15 colon and with HCT-116 colon was above 100 µM in each case.

Turning to `Nc1ncnc2c1ncn2C1OC(CO)C(O)C1O` (stereo unspecified), the GI50 in the assay on SF-539 CNS is 31.6 µM; with SK-MEL-28 melanoma, > 100 µM and 313 µM and 62.3 µM; with NCI-H226 lung, > 100 µM and 213 µM and 25.5 µM; with UACC-62 melanoma, > 100 µM and 247 µM and 27.2 µM; in the assay with A498 renal, 93.2 µM and 43.5 µM and 55.1 µM; in the assay with HCT-116 colon, 7.58 µM. The TGI in the assay on SF-539 CNS is above 450 µM; in the assay on SK-MEL-28 melanoma it was above 450 µM; in the assay on NCI-H226 lung, above 373 µM; in the assay with SK-MEL-2 melanoma it was > 100 µM and > 450 µM and 75.7 µM; with UACC-62 melanoma it was above 450 µM; with A498 renal, above 100 µM. Also, the TGI was > 100 µM and > 450 µM and 62 µM in the assay on HCT-15 colon; above 450 µM in the assay on UO-31 renal; above 450 µM in the assay on HCT-116 colon.

For `COc1cc(Oc2cnc3cc(N)cc(N)c3n2)cc(OC)c1OC`, the GI50 is 46.2 µM with SF-539 CNS; 36.6 µM with SK-MEL-28 melanoma; 45.6 µM with NCI-H226 lung; above 100 µM with SK-MEL-2 melanoma; 35.4 µM in the assay with UACC-62 melanoma; 65.1 µM in the assay on A498 renal. Also, the GI50 in the assay on HCT-15 colon is 50 µM; in the assay with UO-31 renal it was 35 µM; in the assay with HCT-116 colon it was 19.6 µM. For the same compound, the TGI in the assay on SF-539 CNS, in the assay with SK-MEL-28 melanoma, in the assay with NCI-H226 lung, in the assay on SK-MEL-2 melanoma, with UACC-62 melanoma and in the assay with A498 renal was above 100 µM throughout. Besides, the values for the TGI in the assay with HCT-15 colon, with UO-31 renal and in the assay on HCT-116 colon were above 100 µM, above 100 µM and 42.8 µM, respectively.
